From patent US20130197027A1, “HETEROCYCLYL-AZABICYCLO[3.2.1]OCTANE ANALOGS AS SELECTIVE M1 AGONISTS AND METHODS OF MAKING AND USING SAME” (priority 2010, published 2013)
Changes are numbered by the printed parent chain. Read-outs that look alike come from different tables or passages of the source.

Legend:
hM1 = target: T1, hM1 (Homo sapiens, UniProt P11229); assay: Calcium mobilization assay in CHO-K1 cells stably expressing human M1 (high throughput, FDSS 6000); format: cell-based; conditions: for Emax: HM1, read-out: Efficacy (% Max ACh)
T1 construct: host or cells: CHO-K1
T1 sequence (P11229 1-460): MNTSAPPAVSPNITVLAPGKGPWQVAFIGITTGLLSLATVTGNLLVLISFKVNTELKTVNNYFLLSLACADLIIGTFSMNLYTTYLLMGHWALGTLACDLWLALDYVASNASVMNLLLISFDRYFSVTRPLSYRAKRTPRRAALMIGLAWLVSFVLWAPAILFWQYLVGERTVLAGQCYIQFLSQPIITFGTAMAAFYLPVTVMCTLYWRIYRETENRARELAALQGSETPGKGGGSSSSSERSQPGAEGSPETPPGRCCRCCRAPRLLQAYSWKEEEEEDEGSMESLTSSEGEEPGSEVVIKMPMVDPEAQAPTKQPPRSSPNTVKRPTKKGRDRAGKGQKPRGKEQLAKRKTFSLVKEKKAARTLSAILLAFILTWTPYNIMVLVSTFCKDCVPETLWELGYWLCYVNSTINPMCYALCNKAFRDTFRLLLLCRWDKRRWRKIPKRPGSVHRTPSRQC
From the text: (§1) Chinese hamster ovary (CHO-K1) cells stably expressing rat (r) M1 were purchased from the American Type Culture Collection and cultured according to their indicated protocol. CHO cells stably expressing human (h)M2, hM3, and hM5 were described previously (Levey et al., 1991); hM1 and hM4 cDNAs were purchased from Missouri S&T cDNA Resource; rM4 cDNA was provided by T. I. Bonner (National Institutes of Health, Bethesda, Md.). hM1, hM4, and rM4 cDNAs were used to stably transfect CHO-K1 cells purchased from the American Type Culture Collection using Lipofectamine2000. To make stable hM2, hM4 and rM4 cell lines for use in calcium mobilization assays, these cells also were stably transfected with a chimeric G-protein (Gqi5) (provided by B. R. Conklin, University of California, San Francisco) using Lipofectamine 2000. rM1, hM3, and hM5 cells were grown in Ham's F-12 medium containing 10% heat-inactivated fetal bovine serum (FBS), 20 mM HEPES, and 50 μg/mL G418 sulfate. hM2-Gqi5 and hM4-Gqi5 cells were grown in the same medium also containing 500 μg/mL Hygromycin B. Stable rM4-Gqi5 cells were grown in DMEM containing 10% heat-inactivated FBS, 20 mM HEPES, 400 μg/mL G418 sulfate, and 500 μg/mL Hygromycin B. The rat M1 Y381A orthosteric mutant receptor cDNA was generated using the Quik-Change site-directed mutagenesis kit (Stratagene) and verified by sequencing. CHO-K1 cells were stably transfected with this cDNA using Lipofectamine2000 and screened for expression based on calcium mobilization in response to the allosteric M1 agonist N-desmethylclozapine.
For high throughput measurement of agonist-evoked increases in intracellular calcium, CHO-K1 cells stably expressing muscarinic receptors were plated in growth medium lacking G418 and hygromycin at 15,000 cells/20 μL/well (hM1, hM2-Gqi5, hM3, hM4-Gqi5, and hM5) in Greiner 384-well black-walled, tissue culture (TC)-treated, clear-bottom plates (VWR). Cells were incubated overnight at 37° C. and 5% CO2. The next day, cells were washed using an ELX 405 (BioTek) with three washes (50 μL) of assay buffer then aspirated to 15 μL. Next, 5 μL of 8 μM Fluo-4/acetoxymethyl ester (Invitrogen, Carlsbad, Calif.) prepared as a 2.3 mM stock in DMSO and mixed in a 1:1 ratio with 10% (w/v) Pluronic F-127 and diluted in assay buffer was added to the wells and the cell plates were incubated for 45 min at 37° C. and 5% CO2. Dye was removed by washing with the ELX 405 (three 50 μL washes of assay buffer) then aspirated to 20 μL. Agonist and compound master plates were formatted in an 11 point CRC format (1:3 dilutions) in 100% DMSO with a starting concentration of 10 mM using the BRAVO liquid handler (Agilent). Test compound CRCs were then transferred to daughter plates ([…]) using the Echo acoustic plate reformatter (Labcyte, Sunnyvale, Calif.) and then diluted into assay buffer (40 μL) to a 2× stock using a Thermo Fisher Combi (Thermo Fisher Scientific, Waltham, Mass.). Calcium flux was measured using the Functional Drug Screening System (FDSS) 6000 (Hamamatsu Corporation, Tokyo, Japan) as an increase in the fluorescent static ratio. 20 μL of Agonist Compounds were applied to cells using the automated system of the FDSS 6000 at 4 s into the 300 s protocol and the data were collected at 1 Hz. Concentration-response curves were generated using a four-parameter logistical equation in XLfit curve fitting software (IDBS, Bridgewater, N.J.) for Excel (Microsoft, Redmond, Wash.) or Prism (GraphPad Software, Inc., San Diego, Calif.).

rM1 = target: T2, rM1 (Rattus norvegicus, UniProt P08482); assay: Calcium mobilization assay in CHO-K1 cells stably expressing rat M1 (low throughput, Flexstation II); format: cell-based; conditions: for Emax: RM1, read-out: Efficacy (% Max ACh)
T2 construct: host or cells: CHO-K1
T2 sequence (P08482 1-460): T1 sequence (P11229 1-460) with A5V, T254S, P309S, R320K, A337G, I413V
From the text: as §1
For low throughput measurement of agonist-evoked increases in intracellular calcium, CHO-K1 cells stably expressing muscarinic receptors were plated in 100 μL of growth medium at 5×10^4 (rM1, hM3, and hM5) or 6×10^4 cells per well (rM1 Y381A, hM2, and rM4) in Costar 96-well black-walled, tissue culture (TC)-treated, clear-bottom plates (Fisher). Cells were incubated overnight at 37° C. and 5% CO2. The next day, medium was removed from the cells, and they were incubated with 50 μL of 2 μM Fluo-4/acetoxymethyl ester (Invitrogen, Carlsbad, Calif.) prepared as a 2.3 mM stock in DMSO and mixed in a 1:1 ratio with 10% (w/v) Pluronic F-127 and diluted in assay buffer [HBSS (Invitrogen) supplemented with 20 mM HEPES and 2.5 mM probenecid, pH 7.4] for 1 h at 37° C. and 5% CO2. Dye was removed and replaced with 50 μL of assay buffer. For calcium fluorescence measurements, CRCs of compounds (50 μl, 2×) were added 19 s after the beginning of data collection via a Flexstation II (Molecular Devices, Sunnyvale, Calif.). Fluorescence imaging continued for a total of 130 s acquisition time using an excitation wavelength of 488 nm, an emission wavelength of 525 nm, and a cutoff wavelength of 515 nm. All of the peaks of the calcium response were normalized to the response to a maximally effective concentration of ACh (ECmax). These normalized peak calcium response values were fit using GraphPad Prism version 4.0 to a four-parameter logistic equation to determine EC50 values.

[1] = agonist-evoked calcium mobilization, CHO-K1 hM1 cells, read-out: hM1 Potency (EC50)
[2] = agonist-evoked calcium mobilization, CHO-K1 rM1 cells, read-out: rM1 Potency (EC50)

Row | Structure (SMILES) | Emax (hM1) | EC50 (hM1; [1]) | EC50 (hM1) | EC50 (rM1) | Emax (rM1) | EC50 (rM1; [2])
1 | CCOC(=O)N1C2CCC1CC(N1CC[C@@H](NC(=O)c3ccccc3)C1)C2 (stereo partly drawn) [Example 17, ethyl 3-((R)-3-benzamidopyrrolidin-1-yl)-8-azabicyclo[3.2.1]octane-8-carboxylate] | 54% | 160 nM | – | – | – | –
2 | CCOC(=O)N1C2CCC1CC(N1CCC[C@@H](NC(=O)c3ccccc3C)C1)C2 (stereo partly drawn) [Example 2, ethyl 3-((R)-3-(2-methylbenzamido)piperidin-1-yl)-8-azabicyclo[3.2.1]octane-8-carboxylate] | 88% | – | 53 nM | 5 nM | 94% | –
3 | CCOC(=O)N1C2CCC1CC(N1CC[C@@H](NC(=O)c3ccccc3C)C1)C2 (stereo partly drawn) [Example 16, ethyl 3-((R)-3-(2-methylbenzamido)pyrrolidin-1-yl)-8-azabicyclo[3.2.1]octane-8-carboxylate] | 57% | 940 nM | – | – | – | –
4 | CCOC(=O)N1C2CCC1CC(N1CCC[C@@H](NC(=O)c3cc(Cl)ccc3F)C1)C2 (stereo partly drawn) [Example 11, ethyl 3-((R)-3-(5-chloro-2-fluorobenzamido)piperidin-1-yl)-8-azabicyclo[3.2.1]octane-8-carboxylate] | – | – | – | – | 65% | 590 nM
5 | CCOC(=O)N1C2CCC1CC(N1CCC[C@@H](NC(=O)c3ccc(F)c(C)c3)C1)C2 (stereo partly drawn) [Example 8, ethyl 3-((R)-3-(4-fluoro-3-methylbenzamido)piperidin-1-yl)-8-azabicyclo[3.2.1]octane-8-carboxylate] | – | – | – | 48 nM | 93% | –
6 | CCOC(=O)N1C2CCC1CC(N1CCC[C@@H](NC(=O)c3cc(F)cc(F)c3)C1)C2 (stereo partly drawn) [Example 10, ethyl 3-((R)-3-(3,5-difluorobenzamido)piperidin-1-yl)-8-azabicyclo[3.2.1]octane-8-carboxylate] | – | – | – | 96 nM | 90% | –
7 | CCOC(=O)N1C2CCC1CC(N1CCC[C@@H](NC(=O)c3c(F)cccc3F)C1)C2 (stereo partly drawn) [Example 15, ethyl 3-((R)-3-(2,6-difluorobenzamido)piperidin-1-yl)-8-azabicyclo[3.2.1]octane-8-carboxylate] | 66% | 330 nM | – | – | – | –
8 | CCOC(=O)N1C2CCC1CC(N1CCC[C@@H](NC(=O)c3ccc(F)cc3F)C1)C2 (stereo partly drawn) [Example 5, ethyl 3-((R)-3-(2,4-difluorobenzamido)piperidin-1-yl)-8-azabicyclo[3.2.1]octane-8-carboxylate] | – | – | – | 69 nM | 89% | –
9 | CCOC(=O)N1C2CCC1CC(N1CCC[C@@H](NC(=O)c3ccc(F)cc3)C1)C2 (stereo partly drawn) [Example 9, ethyl 3-((R)-3-(4-fluorobenzamido)piperidin-1-yl)-8-azabicyclo[3.2.1]octane-8-carboxylate] | – | – | – | 38 nM | 95% | –
10 | CCOC(=O)N1C2CCC1CC(N1CCC[C@@H](NC(=O)c3ccccc3)C1)C2 (stereo partly drawn) [Example 3, ethyl 3-((R)-3-benzamidopiperidin-1-yl)-8-azabicyclo[3.2.1]octane-8-carboxylate] | 79% | 1600 nM | – | – | 93% | 112 nM
11 | CCOC(=O)N1C2CCC1CC(N1CCC[C@@H](NC(=O)c3ccccc3Cl)C1)C2 (stereo partly drawn) [Example 7, ethyl 3-((R)-3-(2-chlorobenzamido)piperidin-1-yl)-8-azabicyclo[3.2.1]octane-8-carboxylate] | 61% | – | 570 nM | 39 nM | 94% | –
12 | CCOC(=O)N1C2CCC1CC(N1CCC[C@@H](NC(=O)c3ccc(F)c(F)c3)C1)C2 (stereo partly drawn) [Example 12, ethyl 3-((R)-3-(3,4-difluorobenzamido)piperidin-1-yl)-8-azabicyclo[3.2.1]octane-8-carboxylate] | 68% | 750 nM | – | – | – | –
13 | CCOC(=O)N1C2CCC1CC(N1CCC[C@@H](NC(=O)OC(C)(C)C)C1)C2 (stereo partly drawn) [Example 1, ethyl 3-((R)-3-((tert-butoxycarbonyl)amino)piperidin-1-yl)-8-azabicyclo[3.2.1]octane-8-carboxylate] | 29% | 2000 nM | – | – | 74% | 267 nM
14 | CCOC(=O)N1C2CCC1CC(N1CCC[C@@H](NC(=O)c3cccc(C)c3)C1)C2 (stereo partly drawn) [Example 6, ethyl 3-((R)-3-(3-methylbenzamido)piperidin-1-yl)-8-azabicyclo[3.2.1]octane-8-carboxylate] | – | – | – | 41 nM | 94% | –
15 | CCOC(=O)N1C2CCC1CC(N1CCC[C@@H](NC(=O)c3ccccc3F)C1)C2 (stereo partly drawn) [Example 13, ethyl 3-((R)-3-(2-fluorobenzamido)piperidin-1-yl)-8-azabicyclo[3.2.1]octane-8-carboxylate] | 38% | 4200 nM | – | – | – | –
16 | CCOC(=O)N1C2CCC1CC(N1CCC[C@@H](NC(=O)c3ccc(F)cc3Cl)C1)C2 (stereo partly drawn) [Example 14, ethyl 3-((R)-3-(2-chloro-4-fluorobenzamido)piperidin-1-yl)-8-azabicyclo[3.2.1]octane-8-carboxylate] | 68% | 620 nM | – | – | – | –
